Experimental data as given in patent US9458437B2, “Neuroprotective peptides that inhibit interaction between palmitoyl acyl transferase zinc-finger DHHC type containing 17 (zD17) and c-jun N-terminal kinase (JNK)” (The University of British Columbia, priority 2011, dated 2016).

Legend:
[1] = system: middle cerebral artery occlusion (MCAo); test: transient MCAo in SD rats, infarct volume (TTC histology); type: in vivo, Sprague-Dawley rat
[2] = system: middle cerebral artery occlusion (MCAo); test: transient MCAo in SD rats, neurological scores; type: in vivo, Sprague-Dawley rat; parameters: key: summed neurological score, 0 to 27
[3] = system: middle cerebral artery occlusion (MCAo); test: transient MCAo in SD rats, adhesive removal test (ART); type: in vivo, Sprague-Dawley rat; parameters: unit not given here; settings: peptide given 4 h after MCAo onset
zD17-JNK3 interaction = zD17-JNK3 interaction (Rattus norvegicus, UniProt P49187); test: co-immunoprecipitation of zD17 with JNK3 in cortical neuronal cultures; type: cell-based; parameters: diminished the co-immunoprecipitation of zD17 with JNK3; endogenous in cells; host or cells: primary cortical neurons of embryonic (E18-19) Wistar rat
Procedure: All animal experiments were approved by the Animal Care Committee of the University of British Columbia. Primary cortical cultures were prepared from Wistar rat (UBC Animal Care Centre, Vancouver, BC, Canada) brains at embryonic days 18-19. Cultures were maintained in Neurobasal medium supplemented with B27 and 0.5 mM glutamax (Invitrogen™) as described previously (Yang et al., 2009).
The protocols for protein extraction have been described previously (Yang et al., 2009). For co-immunoprecipitation, cultured cells were washed with ice-cold PBS followed by incubation with 0.5 ml Gentle Lysis Buffer (GLB) containing 25 mM Tris-HCl (pH 7.4), 2 mM EDTA, 1 mM EGTA, 10 mM NaCl, 0.5% Triton X-100 and 10% Glycerol supplemented with the Complete Protease Inhibitor Tablets (Roche Applied Science™, Indianapolis, Ind., USA) and 1 mM PMSF. Total protein concentration was determined with the BioRad™ Protein Assay kit. Lysates were first precleaned by incubating with Protein A-Sepharose beads (Roche Applied Science™) for 1 h at 4° C., followed by incubation with indicated antibodies (>16 h at 4° C.) and protein A Sepharose bead (2 h at 4° C.). Lysates of rat brain tissues were precleaned with IgG and protein A-beads. Immunoprecipitates were washed three times with GLB buffer; boiled in 2× loading buffer with 1 mM dithiothreitol (DTT) for 3 min; and analyzed with SDS-PAGE as described previously (Yang et al., 2009). The relative intensities of the bands on immunoblots were analyzed and quantified using Image J™ (NIH).

JNK3 = biological target: T1, JNK3 (Rattus norvegicus, UniProt P49187); test: kinase assay (KA) on JNK3 immunoprecipitated from cell lysates; type: cell-based; settings: for JNK3 activity normalized to 0 h: NMDA + NIMoE
T1 construct: cell lysates were prepared and JNK was immunoprecipitated with specific antibodies; endogenous in cells; host or cells: rat primary neuronal cultures; JNK3 immunoprecipitated from lysate
Procedure: (§1) JNK activity was measured with an in vitro kinase assay as described elsewhere (see, for e.g.: Khatlani et al., 2007). Briefly, cell lysates were prepared and JNK was immunoprecipitated with specific antibodies. The immnoprecipitates were then resuspended in 1× kinase buffer (Cell Signaling Technology™) supplemented with 200 μM ATP and 250 μg/ml GST-c-jun (1-89), and incubated at 30° C. for 30 min. Reactions were terminated by the addition of SDS-PAGE sample buffer. Phosphorylated c-jun was resolved by SDS-PAGE and detected with anti-p-c-jun.

c-jun = test: NMDA-induced c-jun phosphorylation in neurons; type: cell-based, rat; settings: neuronal cultures
JNK1 = biological target: T2, JNK1 (Rattus norvegicus, UniProt P49185); test: kinase assay (KA) on JNK1 immunoprecipitated from cell lysates; type: cell-based; settings: for JNK1 activity normalized to 0 h: NMDA + NIMoE
T2 construct: JNK is immunoprecipitated from the cell lysate; endogenous in cells; host or cells: rat primary neuronal cultures; JNK1 immunoprecipitated from lysate
Procedure: as §1

caspase-3 = test: NMDA-induced caspase-3 cleavage in neurons; type: cell-based, rat; settings: neuronal cultures
[4] = peptide given 4 h after MCAo onset, day-1
[5] = peptide given 4 h after MCAo onset, day-3
[6] = peptide given 4 h after MCAo onset, day-7
[7] = peptide given 4 h after MCAo onset, day-14

Sequence of zD17-JNK3 interaction (P49187 whole entry): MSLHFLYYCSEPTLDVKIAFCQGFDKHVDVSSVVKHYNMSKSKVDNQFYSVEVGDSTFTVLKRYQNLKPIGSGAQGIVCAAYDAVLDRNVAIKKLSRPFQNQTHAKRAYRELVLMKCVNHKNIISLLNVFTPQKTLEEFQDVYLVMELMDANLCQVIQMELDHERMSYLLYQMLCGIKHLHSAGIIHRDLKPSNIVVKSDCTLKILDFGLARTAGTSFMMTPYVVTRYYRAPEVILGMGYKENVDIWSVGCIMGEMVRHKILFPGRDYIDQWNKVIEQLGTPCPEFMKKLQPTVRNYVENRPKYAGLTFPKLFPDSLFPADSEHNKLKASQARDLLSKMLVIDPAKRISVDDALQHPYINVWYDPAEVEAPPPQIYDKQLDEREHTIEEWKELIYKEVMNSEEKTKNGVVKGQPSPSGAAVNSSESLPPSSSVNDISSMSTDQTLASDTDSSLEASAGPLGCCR
T1 sequence (P49187 whole entry): as above
T2 sequence (P49185 whole entry): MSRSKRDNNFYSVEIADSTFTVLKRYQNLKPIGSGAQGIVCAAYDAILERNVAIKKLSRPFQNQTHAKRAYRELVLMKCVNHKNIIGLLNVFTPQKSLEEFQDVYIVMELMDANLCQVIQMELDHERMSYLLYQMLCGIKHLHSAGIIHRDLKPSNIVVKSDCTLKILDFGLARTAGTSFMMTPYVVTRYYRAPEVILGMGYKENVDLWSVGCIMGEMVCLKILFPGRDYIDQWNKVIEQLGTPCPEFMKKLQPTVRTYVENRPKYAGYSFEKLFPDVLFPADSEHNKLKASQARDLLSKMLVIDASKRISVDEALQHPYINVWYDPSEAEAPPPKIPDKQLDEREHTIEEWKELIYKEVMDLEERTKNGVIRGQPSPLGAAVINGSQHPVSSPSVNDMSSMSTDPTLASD

Sequence	neurological scores [2, 4]	neurological scores [2, 5]	neurological scores [2, 6]	neurological scores [2, 7]	ART ([3]; day-1)	ART ([3]; day-3)	ART ([3]; day-7)	ART ([3]; day-14)	enhancement of the zD17-JNK3 interaction induced by NMDA/excitotoxicity (zD17-JNK3 interaction)	enhancement of JNK3 activity induced by NMDA (JNK3; neuronal cultures)	NMDA-induced c-jun phosphorylation (c-jun)	NMDA-induced caspase-3 cleavage (caspase-3)	further results
HRYRWLTDLLSMVTTPAAPM (NIMoEscr scrambled NIMoE) [negative control peptide resulting from a scrambled NIMoE, reference compound]	19.25±0.80	13.63±1.03	7.13±0.58	4.38±0.50	12.63±3.14	34.13±6.88	59.13±5.67	81.88±4.44	did not selectively block enhancement	did not selectively block enhancement			total infarct volume ([1]; scrambled control peptide group, injection time not given): 212.60±37.6 mm^3; neurological scores ([2]; 22 h after onset of MCAo, scrambled control peptide group): 18.60±1.24
MTPLMWAAYRTHSVDPTRLL (listed as Homo sapiens) [NIMoE, peptide comprising motif-E of zD17, fused to the cell-membrane transduction domain of HIV-1 Tat for cell experiments]									selectively blocked the enhancement	selectively blocked the enhancement	able to prevent	effectively blocked	JNK1 activity normalized to 0 h (JNK1; 0.5 h): 104.3±2.6%; JNK1 activity normalized to 0 h (JNK1; 1 h): 168.5±3.3%; normal activation of JNK1 (JNK1; NMDA, neuronal cultures): did not inhibit; zD17-JNK3 interaction (co-immunoprecipitation), baseline (zD17-JNK3 interaction; no NMDA): no effect; JNK3 activity normalized to 0 h (JNK3; 0.5 h): 90.6±5.3%; JNK3 activity normalized to 0 h (JNK3; 1 h): 47.0±17.6%; JNK3 basal activity (JNK3; neuronal cultures): no effect; JNK3 basal activity, fold change to control (JNK3; pretreatment of cells 1 μM for 2 h): 0.89±0.10 fold
WAAYRTHSVD (listed as Homo sapiens) [NIMoEsh, shorter 10mer of NIMoE, primarily the loop region of motif-E (zD17 196-205)]	11.43±1.96	5.86±1.14	1.71±0.47	0.85±0.34	52.57±6.82	73.86±9.63	94.86±7.33	101.43±3.35			able to prevent	effectively blocked	infarct volume compared with non-treated, saline-treated and scramble peptide-treated groups ([1]; post-surgical interventions at 2 h or 4 h): effective protection for the ischemic brain; total infarct volume ([1]; single i.v. injection +2 h after MCAo onset): 41.95±8.22 mm^3; total infarct volume ([1]; single i.v. injection +4 h after MCAo onset): 78.74±28.50 mm^3; total infarct volume ([1]; single i.v. injection −0.5 h (before MCAo onset), control 240.70±35.67): 43.43±9.82 mm^3; reduction of total infarct size ([1]; single intravenous injection 30 min before MCAo): about 80%; neurological scores ([2]; 22 h after onset of MCAo, injection +2 h): 8.50±0.75; neurological scores ([2]; 22 h after onset of MCAo, injection +4 h): 11.20±1.49; neurological scores ([2]; 22 h after onset of MCAo, injection −0.5 h, scale 0 to 27): 8.00±0.72
